Holding throughout (format): cell-based, human
Assay [1] has as its system leiomyoma cells. In words: Treatment of leiomyoma cells with RITA, qRT-PCR. Particulars: cells of fibroids, 10 μM RITA, 72 h. How it is done: For treatment with RITA (Biomol, Hamburg, Germany) cells were plated in Leighton-tubes at a density of 200,000 on 10 mm×50 mm cover slips 24 h before incubation with RITA. Cells were treated with 1 μM and 10 μM RITA for 72 h. As controls cells were cultured in medium 199 supplemented with 20% FCS without RITA for 72 h. Relative quantification of transcription levels was carried out by real-time PCR analyses using the Applied Biosystems 7300 real-time PCR system (Applied Biosystems, Darmstadt, Germany). Commercially available gene expression assays (Applied Biosystems, Darmstadt, Germany) were used for quantification of mRNA of human BAX (Hs00180269_m1), p21 (Hs99999142), β-Gal (Hs01035162) and Ki67 (Hs00606991_m1). HPRT served as endogenous control. All qRT-PCR experiments were done in triplicate.
On the technique in general: Quantitative PCR measures a nucleic acid by following its amplification.

The test system of assay [2] is explants of fibroids and matching myometrium. In words: Treatment of explants of fibroids and matching myometrium with RITA, qRT-PCR. Particulars: explants in short term culture, RITA 10 μM, 72 h. The procedure: For the experiments explants from a leiomyoma with a clonal complex chromosomal rearrangement involving chromosome 10 along with matching myometrium were taken during surgery and immediately transferred into sterile Hank's solution. For treatment with RITA (Biomol, Hamburg, Germany) tissue samples were minced into small pieces of approximately 0.5 cm diameter and incubated in medium 199 supplemented with 20% FCS and RITA (10 μM) for 72 h. As controls tissue explants were incubated in medium 199 supplemented with 20% FCS without RITA for 72 h. Relative quantification of transcription levels was carried out by real-time PCR analyses using the Applied Biosystems 7300 real-time PCR system (Applied Biosystems, Darmstadt, Germany). Commercially available gene expression assays (Applied Biosystems, Darmstadt, Germany) were used for quantification of mRNA of human BAX (Hs00180269_m1), p21 (Hs99999142), β-Gal (Hs01035162) and Ki67 (Hs00606991_m1). HPRT served as endogenous control. All qRT-PCR experiments were done in triplicate.

Assay [3] deals with leiomyoma cells. The assay is described as follows: Treatment of leiomyoma cells with Tenovin-1, qRT-PCR of p21 and BAX. The procedure:
For treatment with Tenovin-1 (Biomol, Hamburg, Germany) cells were plated in Leighton-tubes at a density of 200,000 on 10 mm×50 mm cover slips 24 h before incubation with Tenovin-1. Cells were treated with 3 μM and 10 μM Tenovin-1 for 24 and for 72 h, respectively. As controls cells were cultured in medium 199 supplemented with 20% FCS without Tenovin-1 for 24 and for 72 h, respectively.

Consider `OCc1ccc(-c2ccc(-c3ccc(CO)s3)o2)s1` [RITA, 2,5-bis-(5-Hydroxymethyl-2-thienyl)-furan], for which, in the assay with leiomyoma cells [1], the “expression of BAX” value is reported as “significant increase”, the “expression of Ki-67” value is listed as “decrease”, the “expression of p21” value is on record as “significant increase” and the “expression of β-galactosidase” value is recorded as “significant increase”. Further, in assay [2], the “expression of BAX” value was “significant increase” and the “expression of p21” value is recorded as “significant increase”.
With `CC(=O)Nc1ccc(NC(=S)NC(=O)c2ccc(C(C)(C)C)cc2)cc1` [Tenovin-1], the “expression of p21” value in the assay on leiomyoma cells [3] (3 μM and 10 μM, 24 h and 72 h, p<0.01 with both concentrations) was “significant increase”. For the same molecule, the “expression of BAX” value with leiomyoma cells [3] (significant at 24 h with 3 μM and 10 μM (p<0.001) and 72 h with 10 μM (p<0.01)) is “significant increase”.

The values are drawn from patent US20140371237A1, “p19Arf, HMGA2 and MDM2 For Use in the Diagnosis and Treatment of Aberrant Cell Growth” (University of Bremen, priority 2010, published 2014).
